Reference: US8399508B2, “Olopatadine formulations for topical nasal administration” (Alcon Pharmaceuticals Ltd., priority 2001, dated 2013)
Counter-ions that a name gives are not always drawn.

What was measured:
Format in all cases: physicochemical
[1] = Acid-base equilibrium of olopatadine (pKa values, iso-electric point)
Description: Olopatadine has both a carboxylic functional group (pKa1=4.18) and a tertiary amino group (pKa2=9.79). It exists in different ionic forms depending upon the pH of the solution. Olopatadine exists predominantly as a zwitterion in the pH range between the two pKa values with a negatively-charged carboxylic group and a positively-charged tertiary amino group. The iso-electric point of the olopatadine zwitterion is at pH 6.99. At a pH lower than pKa1, cationic olopatadine (with ionized tertiary amino group) is dominant. At a pH higher than pKa2, anionic olopatadine (with ionized carboxylic group) is dominant.

[2] = Effect of NaCl and Na2HPO4 on dissolution of olopatadine hydrochloride in water
Method: The effect of NaCl on the dissolution rate of olopatadine hydrochloride in water was determined.

[3] = Effect of NaCl, Na2HPO4 and mannitol on dissolution rate of olopatadine hydrochloride in a nasal vehicle; conditions: nasal formulation containing 0.01% EDTA and 0.01% BAC
Method: The effect of NaCl, Na2HPO4, and mannitol on the dissolution rate of olopatadine hydrochloride in a nasal formulation containing 0.01% EDTA and 0.01% BAC was determined.

[4] = Effect of NaCl and Na2HPO4 concentrations on dissolution of olopatadine hydrochloride in a nasal formulation
Method: The effect of NaCl and Na2HPO4 concentrations on the dissolution rate of olopatadine hydrochloride in a nasal formulation containing 0.01% EDTA and 0.01% BAC was determined. The aqueous solubility of olopatadine HCl decreases with increasing concentration of NaCl.

[5] = Example 5: visual observations of clarity during compounding, with and without phosphate buffer; conditions: without phosphate buffer, 0.7% NaCl, pH as low as 3.6, compounding procedure of Example 1
Method: An exemplary compounding procedure for the nasal composition shown in Table 1 is described as below. • 1. Tare a suitable compounding vessel with magnetic stir bar. Add approximately 80% of the batch weight of purified water. • 2. While stirring, add dibasic sodium phosphate (anhydrous), sodium chloride, edetate disodium, benzalkonium chloride and olopatadine HCl. • 3. Add equivalent to approximately 0.55 g, 6N hydrochloric acid per 100 ml batch. • 4. Allow adequate time between each addition for dissolution of each ingredient • 5. Add purified water to approximately 90% of final batch weight. • 6. Measure pH and adjust, if necessary, to 3.7 with 6N (and/or 1N) hydrochloric acid and 1N sodium hydroxide. • 7. Adjust to final batch weight with purified water (QS). • 8. Measure final pH. • 9. Filter through 0.2 μm filtration membrane.
The two compositions shown in Table 2 below were prepared using the procedure described in Example 1 and visual observations of the compositions clarity were made at different points during the compounding procedure.

[6] = Example 6: visual observations, phosphate buffer added to cloudy 0.6% olopatadine composition; conditions: tested nasal vehicle without a phosphate salt

SMILES	iso-electric point of the olopatadine zwitterion [1]	pKa1 (carboxylic functional group) [1]	pKa2 (tertiary amino group) [1]	effect of NaCl on rate of dissolution ([2]; in water)	effect of addition of Na2HPO4 on dissolution ([2]; in water with NaCl)	time for complete dissolution of 0.6% olopatadine solution ([2]; with Na2HPO4)	time for complete dissolution of 0.6% olopatadine solution ([2]; without Na2HPO4, assuming the entire amount would eventually dissolve)	effect of phosphate salt on dissolution rate [3]	aqueous solubility ([4]; with increasing concentration of NaCl, nasal formulation with 0.01% EDTA and 0.01% BAC)	aqueous solubility ([4]; with increasing phosphate buffer in the presence of NaCl)	dissolution of 0.665% olopatadine hydrochloride in water [5]	solubility of 0.665% olopatadine hydrochloride [6]
CN(C)CC/C=C1/c2ccccc2COc2ccc(CC(=O)O)cc21 [Olopatadine, Z-11-(3-dimethylaminopropylidene)-6,11-dihydrodibenz[b,e]oxepine-2-acetic acid]	6.99 pH	4.18	9.79	significant reduction	dramatically improved	less than one minute	at least several hours					
CN(C)CC/C=C1/c2ccccc2COc2ccc(CC(=O)O)cc21 [olopatadine hydrochloride, hydrochloride salt of (Z)-11-(3-dimethylaminopropylidene)-6,11-dihydro-dibenz-[b,e]oxepin-2-acetic acid]								the same as that shown in water in Example 2	decreases	increased aqueous solubility	did not completely dissolve	not soluble
